Measurements reported in PubChem BioAssay (NCI).
Where “and” joins values, the source holds several entries; their conditions need not be identical. Equal values may be shown once.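 Method: 48-hour compound exposure of cells in 96-well plates, five concentrations, linear interpolation of endpoints. GI50: concentration for 50% inhibition of growth. Definition used: TGI = concentration required for complete inhibition of growth.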

Assays:
Experiment in all cases: NCI anticancer screen, dose series, 48 h
[1] = test system: RXF 393 renal
[2] = test system: UACC-62 melanoma
[3] = test system: OVCAR-8 ovarian
[4] = test system: HCT-15 colon
[5] = test system: UACC-257 melanoma
[6] = test system: A498 renal
[7] = test system: HOP-62 NSCLC
[8] = test system: MOLT-4 leukemia
[9] = test system: T-47D breast
[10] = test system: PC-3 prostate

Row | Structure (SMILES) | TGI [1] | TGI [2] | TGI [3] | TGI [4] | TGI [5] | TGI [6] | TGI [7] | TGI [8] | TGI [9] | TGI [10] | GI50 [1] | GI50 [5] | GI50 [8]
1 | COc1cc(/C=C/C(=O)O)ccc1C(=O)O/C=C/c1ccccc1 | > 100 µM | > 100 µM | > 100 µM | > 100 µM | > 100 µM | > 100 µM | > 100 µM | > 100 µM | – | – | – | – | –
2 | O=C(NC(Cc1c[nH]c2ccccc12)C(=O)O)/C(=C/c1ccccc1O)NC(=O)c1ccccc1 (configuration not stated) | > 100 µM | > 100 µM | 28.9 µM | > 100 µM | > 100 µM | > 100 µM | – | > 100 µM | > 100 µM | – | – | – | –
3 | COc1ccc(N2C(=O)c3c4c(c5c([nH]c6ncccc65)c3C2=O)CCC(C(C)(C)C)C4)cc1 (configuration not stated) | > 100 µM | > 100 µM | > 100 µM | > 100 µM | > 100 µM | – | > 100 µM | – | > 100 µM | > 100 µM | – | – | –
4 | O=c1c2c([nH]c3cc4c(cc13)OCO4)-c1ccccc1CC2 | > 100 µM | > 100 µM | > 100 µM | > 100 µM | > 100 µM | > 100 µM | > 100 µM | > 100 µM | – | – | – | – | –
5 | COc1cc2c(cc1OC)C(N(C)C)C(c1ccccc1)=C2Cl (configuration not stated) | 29.3 µM | – | 47.8 µM | 34.1 µM | 40.5 µM | 59.7 µM | 98.8 µM | 39.6 µM | – | – | – | – | –
6 | O=C(CN1CCCCC1)CC(O)(C(F)(F)F)C(F)(F)F | > 100 µM | > 100 µM | > 100 µM | > 100 µM | > 100 µM | > 100 µM | – | – | > 100 µM | > 100 µM | – | – | –
7 | CN(C)c1ccc(-c2c(C#N)c(S)n(NS(=O)(=O)c3ccccc3)c(=O)c2C#N)cc1 | > 100 µM | > 100 µM | 56.8 µM | 57.7 µM | > 100 µM | > 100 µM | – | > 100 µM | – | > 100 µM | – | – | –
8 | CC1(C)O[C@@H]2COC(=O)[C@@H]2O1 | > 100 µM | > 100 µM | > 100 µM | > 100 µM | > 100 µM | > 100 µM | – | > 100 µM | > 100 µM | > 100 µM | – | – | –
9 | CC(C)(C)N=c1n(C(C)(C)C)oc(=O)n1C(C)(C)C | > 100 µM | > 100 µM | > 100 µM | > 100 µM | > 100 µM | > 100 µM | > 100 µM | > 100 µM | – | > 100 µM | – | – | –
10 | C1CCSCCCCSCCCCSCCCCSC1 | > 100 µM | > 100 µM | > 100 µM | > 100 µM | > 100 µM | > 100 µM | > 100 µM | – | > 100 µM | > 100 µM | – | – | –
11 | OC[C@@H](O)[C@H]1NC[C@@H](O)[C@H]1O | > 100 µM | > 100 µM | > 100 µM | > 100 µM | > 100 µM | > 100 µM | > 100 µM | > 100 µM | – | > 100 µM | – | – | –
12 | CC(C)(C)C1=Cc2cc3cc(C(C)(C)C)[nH]c(=O)c3cc2S(=O)(=O)N1 | – | 42 µM | > 100 µM | – | 58.7 µM | > 100 µM | 63 µM | 84.3 µM | – | – | – | – | –
13 | O=C1NCCCc2nonc21 | > 100 µM | > 100 µM | > 100 µM | > 100 µM | > 100 µM | – | > 100 µM | > 100 µM | > 100 µM | > 100 µM | – | – | –
14 | NC(CSCc1ccccc1)C(=O)O (configuration not stated) | > 100 µM | > 100 µM | > 100 µM | > 100 µM | > 100 µM | > 100 µM | > 100 µM | – | > 100 µM | > 100 µM | – | – | –
15 | C[n+]1c(-c2ccccc2)cc2/c(=C\c3ccc([N+](=O)[O-])cc3)c3ccccc3n21 | 19.5 µM | > 73.6 µM | > 26 µM | > 100 µM | > 60.8 µM | > 100 µM | 19.3 µM | > 30.8 µM | – | 21.1 µM | – | – | –
16 | CC(=O)NS(=O)(=O)c1ccc(NC(=O)c2c3ccccc3nc3ccccc23)cc1 | – | > 100 µM | > 100 µM | > 100 µM | > 100 µM | > 100 µM | > 100 µM | > 100 µM | – | > 100 µM | – | – | –
17 | CSC1CC2C(CC1(C)O)C2(C)C (configuration not stated) | > 100 µM | > 100 µM | > 100 µM | > 100 µM | > 100 µM | > 100 µM | > 100 µM | > 100 µM | – | – | 29.6 µM and > 100 µM | 40.8 µM and > 100 µM | > 100 µM
18 | C/C(=C\c1ccccc1)C(=O)CCN1CCOCC1 | 35.2 µM | 32.6 µM | 41.4 µM | 32.6 µM | 30.6 µM | > 100 µM | > 100 µM | > 62.3 µM | – | – | – | – | –
19 | CC(=O)OC[C@]1(C(=O)C(O)c2ccoc2)[C@H](C)CC[C@@]23COC(=O)C2=CCC[C@@H]31 (some centres not stated) | > 10 µM | > 10 µM | > 10 µM | > 10 µM | > 10 µM | > 10 µM | – | > 10 µM | > 10 µM | > 10 µM | – | – | –
20 | COc1cc(C2c3cc4c(cc3OC(NN=C(C)C)C2C)OCO4)cc(OC)c1O (configuration not stated) | > 100 µM | > 100 µM | > 100 µM | > 100 µM | > 100 µM | – | – | – | > 100 µM | > 100 µM | – | – | –
21 | COc1cc(/C=C2\C(=O)N(C(=O)Cc3ccccc3)N=C2C)ccc1O | – | – | > 100 µM | > 100 µM | > 100 µM | – | > 100 µM | > 100 µM | – | – | – | – | –
22 | COc1ccccc1NC(=O)CC(=O)N1N=C(C)C(N=Nc2ccc(S(N)(=O)=O)cc2)C1=O (configuration not stated) | > 100 µM | > 100 µM | > 100 µM | > 100 µM | > 100 µM | > 100 µM | > 100 µM | > 100 µM | – | – | – | – | –
23 | COCOc1ccc(OC)cc1 | > 100 µM | > 100 µM | > 100 µM | > 100 µM | > 100 µM | > 100 µM | > 100 µM | > 100 µM | – | – | – | – | –
24 | CCN(CC)CCOC(NC(C)=O)(c1ccccc1)c1ccccc1 | > 100 µM | > 100 µM | > 100 µM | > 100 µM | > 100 µM | > 100 µM | > 100 µM | > 100 µM | > 100 µM | – | – | – | –
